From patent publication US20260207769A1, “ANTIBODY DRUG CONJUGATES” (YALE UNIVERSITY, priority 2022, published 2026) come the findings set out here.

The test system of one assay is HCT116-IDH1^mut cells. Nature of the assay: Clonogenic assay in HCT116-IDH1mut cells. Format: cell-based. The settings on record: after 10 days. Here is the method:
Clonogenic or colony formation assays are in vitro assays that can measure the survival or growth of cells on a single-cell level based on the ability of a single cell to grow into a colony. WT or BRCA2^−/− DLD-1 cells were plated with different concentrations of SN38, 3E10 antibody, or 3E10-SN38 conjugate added into the clonogenic assay media. After 7 days for WT cells or 10 days for BRCA2^−/− cells, colony numbers were counted to quantify DLD-1 cell survival. […] Consistent with earlier results, DLD-1 cell survival was concentration-dependent.
The effects of treatment with SN38 or 3E10-SN38 conjugates on HCT116 cells were tested in clonogenic assays as previously described. WT and IDH1^mut HCT116 cells were treated with SN38, cD31N antibody, or cD31N-SN38 conjugate. Cell survival of WT (FIG. 25A) and IDH1^mut HCT116 cells (FIG. 25B) was quantified after 7 days for WT cells or 10 days for […].

Assay [1] relates to DNA damage response proteins such as γH2AX, p-ATM, and p-ATR. Nature of the assay: Western blot of DNA damage response proteins in WT DLD-1 cells. Format: cell-based, human. How it is done: SN38 causes DNA damage via inhibition of topoisomerase I. Therefore, DNA damage was measured in both wild-type (WT) and BRCA2 deficient (BRCA2′) DLD-1 cells by induction of γH2AX after treatment with one of the following: no treatment (NT), SN38 alone (SN38), wild-type 3E10 antibody alone (cWT), 3E10-cD31N antibody alone, cWT-SN38 conjugate, or cD31N-SN38 conjugate. After treatment with 100 nM of the antibody or conjugate for 48 hours, the DLD-1 cells were collected for Western blot analysis to measure 7H2AX protein levels. […] These findings were consistent in both WT and BRCA2^−/− DLD-1 cells, but γH2AX protein levels were elevated across all groups in BRCA2^−/− DLD-1 cells.
DNA damage caused by SN38 or 3E10-SN38 conjugates in WT and BRCA2^−/− DLD-1 cells was assessed by measuring the levels of proteins involved in DNA damage response, p-ATM, p-ATR, pBRCA1, Topoisomerase 1 (TOPO-1), pChk2, pChk1, γH2AX and H2AX. DLD-1 cells were treated with 100 nM of SN38, cWT antibody, cD31N antibody, cWT-SN38 conjugate, or cD31N-SN38 conjugate and collected for Western blot after 24 (FIG. 21A) and 48 hours (FIG. 21B). No treatment (NT) was used as control.
For orientation: A western blot detects proteins with antibodies after separation by electrophoresis.

`CCc1c2c(nc3ccc(O)cc13)-c1cc3c(c(=O)n1C2)COC(=O)[C@]3(O)CC` [SN38, SN-38]: the “cell survival (clonogenic)” value in the assay with HCT116-IDH1^mut cells is recorded as “low levels of cell survival”. In addition, the “protein levels of DNA damage response proteins” value in assay [1] (WT DLD-1, 100 nM, 24 and 48 hour time points) was “increased the protein levels of DNA damage response proteins such as γH2AX, p-ATM, and p-ATR”. In addition, the TOPO-1 levels entry in assay [1] (WT DLD-1, 100 nM, 24 and 48 hours) is listed as “reduced TOPO-1 levels”. In assay [1] (WT DLD-1, 100 nM, 24 hours (Example 10)), the “γH2AX induction (Western blot)” value stood at 7H2AX was induced. Besides, in assay [1] (WT DLD-1, 100 nM, 48 hours (Example 10)), the “γH2AX detection (Western blot)” value is reported as 7H2AX was detected. For the same molecule, the “γH2AX protein levels (Western blot)” value in assay [1] (WT DLD-1 cells, 100 nM, 48 hours (Example 5)) is “induced the highest levels of γH2AX expression”.
